Drawing on patent US20220235049A1, “SUBSTITUTED PYRROLO [2, 3-b] PYRIDINE AND PYRAZOLO [3,4-b] PYRIDINE DERIVATIVES AS PROTEIN KINASE INHIBITORS” (Fochon Pharmaceuticals, Ltd., priority 2019, published 2022), this text covers IC50 for 22 compounds.

By IC50 is commonly meant the concentration that inhibits the measured activity by half. Lower therefore signals greater potency in that assay.

This assay concerns DOHH2 cells. Nature of the assay: Cell proliferation assay in DOHH2 cells (MTS). The class given is cell-based. The gist of the method:
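DOHH2 cells at 5000/well were treated with compound at 1.5–10000 nM for 120 h at 37 °C, as a proxy for BTK inhibition. Proliferation was read by MTS for 2 h, stopped with SDS, and absorbance measured at 490 nm with 650 nm reference; IC50 was fitted from the curve.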

As to `CCOc1cnc2[nH]cc(C(=O)c3ccc(Oc4ccccc4F)cc3F)c2c1N[C@@]12CO[C@H](CO)C1C2` (single isomer, unassigned) [Example 172], for the setting “120 h”, the IC50 came to 0.001 µM.

As for `Cc1cc(Oc2ccccc2F)ccc1C(=O)c1c[nH]c2ncc(F)c(N[C@@]34CO[C@H](CO)C3C4)c12` (single isomer, unassigned) [Example 179], for the setting “Homo sapiens, DOHH-2, 120 h”, the IC50 is 0.001 µM.

Turning to `O=C(c1ccc(Oc2ccccc2F)cc1)c1c[nH]c2ncc(F)c(N[C@@H]3CC[C@@H](CO)OC3)c12` [Example 114, (5-fluoro-4-(((3R,6S)-6-(hydroxymethyl)tetrahydro-2H-pyran-3-yl)amino)-1H-pyrrolo[2,3-b]pyridin-3-yl)(4-(2-fluorophenoxy)phenyl)methanone], the IC50 (Homo sapiens, DOHH-2, 120 h) turned out to be 0.012 µM.

With `CCOc1cnc2[nH]cc(C(=O)c3ccc(Oc4ccccc4F)cc3Cl)c2c1N[C@@H]1CC[C@@H](CO)OC1` [Example 65, (2-chloro-4-(2-fluorophenoxy)phenyl)(5-ethoxy-4-(((3R,6S)-6-(hydroxymethyl)tetrahydro-2H-pyran-3-yl)amino)-1H-pyrrolo[2,3-b]pyridin-3-yl)methanone], the IC50 (Homo sapiens, DOHH-2, 120 h) worked out at 0.001 µM.

As for `Cc1cc(Oc2ccccc2F)ncc1C(=O)c1c[nH]c2ncc(F)c(N[C@@H]3CC[C@@H](CO)OC3)c12` [Example 117, (5-fluoro-4-(((3R,6S)-6-(hydroxymethyl)tetrahydro-2H-pyran-3-yl)amino)-1H-pyrrolo[2,3-b]pyridin-3-yl)(6-(2-fluorophenoxy)-4-methylpyridin-3-yl)methanone], inhibition (Homo sapiens, DOHH-2, 120 h) was half-maximal at 0.069 µM (IC50).

Where the note is “Homo sapiens, DOHH-2, 120 h”, `O=C(c1ccc(Oc2ccccc2)cc1F)c1c[nH]c2nccc(N[C@@H]3CC[C@@H](CO)OC3)c12` [Example 10, (2-fluoro-4-phenoxyphenyl)(4-(((3R,6S)-6-(hydroxymethyl)tetrahydro-2H-pyran-3-yl)amino)-1H-pyrrolo[2,3-b]pyridin-3-yl)methanone] had a 50% inhibitory concentration (IC50) of 0.019 µM.

Compound `O=C(c1ccc(Oc2c(F)cccc2F)cc1)c1c[nH]c2ncc(Cl)c(N[C@@H]3CC[C@@H](CO)OC3)c12` [Example 190, (5-chloro-4-(((3R,6S)-6-(hydroxymethyl)tetrahydro-2H-pyran-3-yl)amino)-1H-pyrrolo[2,3-b]pyridin-3-yl)(4-(2,6-difluorophenoxy)phenyl)methanone] came in with an IC50 (Homo sapiens, DOHH-2, 120 h) of 0.011 µM.

Where the note is “Homo sapiens, DOHH-2, 120 h”, `Cc1cc(Oc2ccccc2F)ccc1C(=O)c1c[nH]c2ncc(C#N)c(N[C@@H]3CC[C@@H](CO)OC3)c12` [Example 48, 3-(4-(2-fluorophenoxy)-2-methylbenzoyl)-4-(((3R,6S)-6-(hydroxymethyl)tetrahydro-2H-pyran-3-yl)amino)-1H-pyrrolo[2,3-b]pyridine-5-carbonitrile] gave an IC50 of 0.001 µM.

Turning to `O=C(c1ccc(Oc2ccccc2F)cc1)c1c[nH]c2ncc(Cl)c(N[C@@H]3CC[C@@H](CO)OC3)c12` [Example 98, (5-chloro-4-(((3R,6S)-6-(hydroxymethyl)tetrahydro-2H-pyran-3-yl)amino)-1H-pyrrolo[2,3-b]pyridin-3-yl)(4-(2-fluorophenoxy)phenyl)methanone], the concentration for half-maximal inhibition (IC50) (Homo sapiens, DOHH-2, 120 h) was 0.041 µM.

Regarding `O=C(c1c(F)cc(Oc2ccccc2)cc1F)c1c[nH]c2nccc(N[C@@H]3CC[C@@H](CO)OC3)c12` [Example 44, (2,6-difluoro-4-phenoxyphenyl)(4-(((3R,6S)-6-(hydroxymethyl)tetrahydro-2H-pyran-3-yl)amino)-1H-pyrrolo[2,3-b]pyridin-3-yl)methanone], inhibition (Homo sapiens, DOHH-2, 120 h) was half-maximal at 0.007 µM (IC50).

In turn, `Cc1cc(Oc2ccccc2)ccc1C(=O)c1c[nH]c2ncc(C#N)c(N[C@@H]3CC[C@@H](CO)OC3)c12` [Example 11, 4-(((3R,6S)-6-(hydroxymethyl)tetrahydro-2H-pyran-3-yl)amino)-3-(2-methyl-4-phenoxybenzoyl)-1H-pyrrolo[2,3-b]pyridine-5-carbonitrile] came in with an IC50 (Homo sapiens, DOHH-2, 120 h) of 0.06 µM.

As to `Cc1nc(Oc2ccccc2)ccc1C(=O)c1c[nH]c2nccc(N[C@@H]3CC[C@@H](CO)OC3)c12` [Example 41, (4-(((3R,6S)-6-(hydroxymethyl)tetrahydro-2H-pyran-3-yl)amino)-1H-pyrrolo[2,3-b]pyridin-3-yl)(2-methyl-6-phenoxypyridin-3-yl)methanone], for the setting “Homo sapiens, DOHH-2, 120 h”, the midpoint of inhibition, the IC50, lay at 0.053 µM.

`O=C(c1ccc(Oc2ccccc2)cc1F)c1c[nH]c2ncc(F)c(N[C@@H]3CC[C@@H](CO)OC3)c12` [Example 58, (5-fluoro-4-(((3R,6S)-6-(hydroxymethyl)tetrahydro-2H-pyran-3-yl)amino)-1H-pyrrolo[2,3-b]pyridin-3-yl)(2-fluoro-4-phenoxyphenyl)methanone]: for the setting “Homo sapiens, DOHH-2, 120 h”, the IC50 was determined as 0.023 µM.

In the case of `Cc1cc(Oc2ccccc2F)ccc1C(=O)c1c[nH]c2ncc(F)c(N[C@@H]3CC[C@@H](CO)OC3)c12` [Example 126, (5-fluoro-4-(((3R,6S)-6-(hydroxymethyl)tetrahydro-2H-pyran-3-yl)amino)-1H-pyrrolo[2,3-b]pyridin-3-yl)(4-(2-fluorophenoxy)-2-methylphenyl)methanone], the IC50 (Homo sapiens, DOHH-2, 120 h) was 0.004 µM.

`COc1cnc2[nH]cc(C(=O)c3ccc(Oc4ccccc4)cc3F)c2c1N[C@@H]1CC[C@@H](CO)OC1` [Example 191, (2-fluoro-4-phenoxyphenyl)(4-(((3R,6S)-6-(hydroxymethyl)tetrahydro-2H-pyran-3-yl)amino)-5-methoxy-1H-pyrrolo[2,3-b]pyridin-3-yl)methanone]: for the setting “Homo sapiens, DOHH-2, 120 h”, the IC50 worked out at 0.001 µM.

As to `Cc1cc(Oc2cccc(F)c2)ccc1C(=O)c1c[nH]c2ncc(C#N)c(N[C@@H]3CC[C@@H](CO)OC3)c12` [Example 49, 3-(4-(3-fluorophenoxy)-2-methylbenzoyl)-4-(((3R,6S)-6-(hydroxymethyl)tetrahydro-2H-pyran-3-yl)amino)-1H-pyrrolo[2,3-b]pyridine-5-carbonitrile], the IC50 (Homo sapiens, DOHH-2, 120 h) was determined as 0.1 µM.

`CCOc1cnc2[nH]cc(C(=O)c3ccc(Oc4ccccc4)cc3)c2c1N[C@@H]1CC[C@@H](CO)OC1` [Example 178, (5-ethoxy-4-(((3R,6S)-6-(hydroxymethyl)tetrahydro-2H-pyran-3-yl)amino)-1H-pyrrolo[2,3-b]pyridin-3-yl)(4-phenoxyphenyl)methanone] showed an IC50 (Homo sapiens, DOHH-2, 120 h) of 0.015 µM.

For the setting “Homo sapiens, DOHH-2, 120 h”, `COc1cnc2[nH]cc(C(=O)c3ccc(Oc4c(F)cccc4F)cc3C)c2c1N[C@@H]1CC[C@@H](CO)OC1` [Example 188, (4-(2,6-difluorophenoxy)-2-methylphenyl)(4-(((3R,6S)-6-(hydroxymethyl)tetrahydro-2H-pyran-3-yl)amino)-5-methoxy-1H-pyrrolo[2,3-b]pyridin-3-yl)methanone] had an IC50 of 0.004 µM.

The compound `COc1cnc2[nH]cc(C(=O)c3ccc(Oc4ccccc4F)cc3)c2c1N[C@@H]1CC[C@@H](CO)OC1` [Example 73, (4-(2-fluorophenoxy)phenyl)(4-(((3R,6S)-6-(hydroxymethyl)tetrahydro-2H-pyran-3-yl)amino)-5-methoxy-1H-pyrrolo[2,3-b]pyridin-3-yl)methanone] had an IC50 (Homo sapiens, DOHH-2, 120 h) of 0.001 µM.

In the case of `COc1cnc2[nH]cc(C(=O)c3ccc(Oc4ccccc4)cc3)c2c1N[C@@H]1CC[C@@H](CO)OC1` [Example 177, (4-(((3R,6S)-6-(hydroxymethyl)tetrahydro-2H-pyran-3-yl)amino)-5-methoxy-1H-pyrrolo[2,3-b]pyridin-3-yl)(4-phenoxyphenyl)methanone], under “Homo sapiens, DOHH-2, 120 h”, the half-maximal inhibitory concentration (IC50) came out at 0.009 µM.

In turn, `COc1cnc2[nH]cc(C(=O)c3ccc(Oc4ncccc4F)cc3F)c2c1N[C@@H]1CC[C@@H](CO)OC1` [Example 195] had an IC50 (Homo sapiens, DOHH-2, 120 h) of 0.083 µM.

Under “Homo sapiens, DOHH-2, 120 h”, `COc1cnc2[nH]cc(C(=O)c3ccc(Oc4ccccc4F)cc3F)c2c1N[C@@H]1CC[C@@H](CNC(C)=O)OC1` [Example 160, N-(((2S,5R)-5-((3-(2-fluoro-4-(2-fluorophenoxy)benzoyl)-5-methoxy-1H-pyrrolo[2,3-b]pyridin-4-yl)amino)tetrahydro-2H-pyran-2-yl)methyl)acetamide] showed an IC50 of 0.001 µM.
